According to patent US20020013264A1, “Neoglycan anticancer agents and uses thereof” (priority 1999, published 2002):

How the values were obtained:
ARP-1 cells = assay: Apoptosis by Annexin V-FITC staining and PI exclusion, ARP-1; assay type: cell-based, human; conditions: discussion summary of Annexin V and TUNEL results
Method: (§1) ARP-1 cells and MDA-MB-231 cells were treated with media only, 32 μg/ml GAG chains and 32 μg/ml neoglycans. The ARP-1 cells were harvested following a 48 hour incubation period and the MDA-MB-231 cells were harvested after a 96 hour incubation period. The induction of apoptosis was determined by staining with fluorescein isothiocyanated-labeled Annexin V (Annexin V-FITC, CALTAG Laboratories, Burlingame, Calif.) following the manufacturer's instructions. Just prior to analysis, 0.5 mg/ml propidium iodide (PI, Sigma, St Louis, Mo.) in PBS, pH. 7.4 was added. Flow cytometry was performed with a Beckman Dickenson (Mountain View, Calif.) FACScan using Cellquest 1.2 software. Annexin V-FITC positive, PI negative cells were considered apoptotic.
(§2) Annexin-V binds to phosphatidylserine which is on the inner cytoplasmic membrane of healthy cells and on the outer cytoplasmic membrane of apoptotic cells .

[1] = system: MDA-MB-231 breast cancer tumors; assay: Treatment of established MDA-MB-231 tumors in nude mice; assay type: in vivo; conditions: single 1.6 mg dose injected into the tumor followed by electroporation
Method: BALB/c nu/nu mice were anesthetized by intraperitoneal administration of a mixture of ketamine (42.8 mg/ml), xylazine (8.6 mg/ml), and acepromazine (1.4 mg/ml) at a dose of 1.8-2.0 ml/kg. Human breast cancer tumors were established following subcutaneous injection of 2×10^6 MDA-MB-231 cells in PBS. Two tumors were established on each mouse. Tumors were injected with a single 1.6 mg dose of chondroitin sulfate or chondroitin sulfate neoglycan in a 50 μl total volume. Immediately following injection, a caliper electrode was positioned on t wo sides of the tumor with contact on the skin. An electrical pulse was applied to the tumor through the electrodes with a BTS EC830 power supply (Genetronics, Inc., San Diego, Calif.). The tumors were measured with calipers and tumor volumes calculated according to the equation: V=(L×W2)×0.5. The results reflect two separate experiments in which one tumor was treated with chondroitin sulfate and the second tumor on the same animal was treated with neoCS. Both experiments included 7 tumors per treatment group.
Therefore, chondroitin sulfate neoglycan was used for evaluation of in vivo neoglycan activity. […] Two tumors per animal developed and were measured just prior to treatment. […] The size of each tumor was determined 48 hours later and at several subsequent time points.

MDA-MB-231 cells = assay: Apoptosis by Annexin V-FITC staining and PI exclusion, MDA-MB-231; assay type: cell-based, human; conditions: discussion summary of Annexin V and TUNEL results
Method: as §1, §2

[2] = system: multiple myeloma cell line; assay: Viability of a multiple myeloma cell line treated with nPG, EDAC modified GAG chains or native GAG chains; assay type: cell-based; conditions: data not shown
Text: Synthetic proteoglycans termed neoproteoglycans (nPG), were produced by EDAC conjugation of the GAG chains heparin or chondroitin sulfate and a protein scaffold. Treatment of a multiple myeloma cell line with either nPG preparation or controls produced by EDAC modification of GAG chains alone reduced cell viability (data not shown). […] Therefore, neoglycans (neoglycans) consisting of EDAC modified heparin (neoheparin) or chondroitin sulfate (neoCS, neoCS) were produced and evaluated for potential anticancer activities.

[3] = system: ARP-1 multiple myeloma cell line; assay: MTT cell viability assay, ARP-1 cells; assay type: cell-based, human; conditions: 500 μg/ml (FIG. 1 legend), 72 hours
Text: ARK, ARP-1, and CAG cells are B lymphoid cell lines established at the Arkansas Cancer Research Center from bone marrow aspirates of multiple myeloma patients (Ridley, Xiao et al. 1993). U266 is a multiple myeloma cell line that was obtained from the American Type Culture Collection (ATCC, Manassas, Va.). ARH-77 cells (ATCC, Manassas, Va.) were established from the peripheral blood of a patient with plasma cell leukemia (Burk, Drewinko et al. 1978). Peripheral blood mononuclear cells (PBMCs) were collected from healthy donors by Ficol-Hypaque separation of whole blood and were mitogen activated for 3 days with 2.5 μg/ml PHA (Sigma, St Louis, Mo.) prior to neoglycan treatment. The cell lines and peripheral blood mononuclear cells were grown in RPMI 1640 supplemented with 10% fetal bovine serum, 2 mM L-glutamine, 1 00 U/ml penicillin and 100 μg/ml streptomycin sulfate. […]
Cells were plated in the appropriate media on 96-well plates in a 100 μl total volume. […] Cell viability was determined based mitochondrial conversion of 3[4,5-Dimethylthiazol-2-yl]-2,5-diphenyltetrazolium bromide (MTT, Sigma, St Louis, Mo.) to formazan. […] The plates were gently agitated until the color reaction was uniform and the OD540 was determined using a microplate reader. […]

Substance | induction of apoptosis in ARP-1 cell line (FIG. 2) (ARP-1 cells) | effect on established MDA-MB-231 tumors / tumor burden [1] | induction of apoptosis in MDA-MB-231 cell line (FIG. 2) (MDA-MB-231 cells) | effect on multiple myeloma cell viability / growth [2] | effect of native GAG chains on cell proliferation [3]
chondroitin sulfate | do not induce apoptosis | does not reduce the tumor burden | do not induce apoptosis | no growth reducing affect | no affect
heparin | do not induce apoptosis |  | do not induce apoptosis | no growth reducing affect | slightly enhances cell proliferation
